From patent US4647586A, “Pharmaceutical oil-in-water type micro-emulsion” (priority 1984, dated 1987)

Key:
[1] = tested on: synthesis of prostaglandin; settings: E. L. Tolman, American Cyanamid Company's report; cited from earlier work
[2] = tested on: Carrageenin-induced paw edema; assay: Carrageenin-induced paw edema in rats [Test 2]; type: in vivo, SD-strain male rats
Method: (a) Experimental animals: SD-strain male rats (120-180 g).
A micro-emulsion containing ethyl 4-biphenylylacetate prepared as in Examples 11, 12, 13 and 14 given hereinafter was administered at a dose of 5 ml per kg of the animals. Venolipid® (Morishita Pharmaceutical Co., Ltd.) was used as a vehicle control. As control drugs, a solution or suspension of ethyl 4-biphenylylacetate in physiological saline containing 0.5% Cremophor EL® (Sigma Chemical Company, a solubilizing agent), 0.2% of polyethylene glycol 400 and 10% of dimethyl sulfoxide, a physiological saline solution of sodium 4-biphenylylacetate and a physiological saline solution of Aspirin DL-lysine [Venopirin®, Green Cross Co.] were used. As the vehicle control of the control drugs, the above solvents were used.
A 1% carrageenin solution in physiological saline was injected subcutaneously in an amount of 0.05 ml into the planter surface of the left hind paw of each rat via a 25 gauge needle fitted to a 0.25 ml syringe. One hour after carrageenin injection, the rats were randomized on the basis of the edema volume, and intravenous administration of the drugs and vehicles followed immediately. The volume of the left hind paw was measured by a plethysmometer (Ugo Basile) prior to the injection of the carrageenin solution and at 2, 3, 4, 5 and 6 hours after the carrageenin injection. As the volume of edema, an increase in the paw volume was taken.
The inhibition percents were calculated in accordance with the same calculation formula as in Test 1.

[3] = tested on: brewer's yeast-induced fever; assay: Effects on body temperature in pyretic rats (antipyretic activity); type: in vivo, SD-strain male rats; settings: iv, 17 hours after yeast; against vehicle control; read-out: ED50 (dose reducing body temperature by at least 1.5° C. in 50% of the rats)
Method: (a) Experimental animals SD-strain male rats (120-185 g).
(§1) (b) Test drugs: The same as in A-1 [Test 2].
Male Sprague-Dawley rats, weighing 120-185 g, were injected subcutaneously in the nape of the neck with 2 ml of a 20% suspension of dried brewers yeast in physiological saline. Drugs and vehicles were administered intravenously 17 hours after treatment of yeast suspension. Rectal temperature was recorded with a thermistor type thermometer (Natsume Seisakusho, BMA-77 Type) just prior to drug administration and at 1/2, 1, 2 and 4 hours after drug administration.

[4] = rat, in vivo
Method: (a) Experimental animals: Wistar-strain male rats (body weight 60-220 g), 6 per group.
The rats were periodically killed, and the major organs were extracted. The concentration of the drug in the tissues were measured by the conventional HPLC method.

[5] = tested on: Adjuvant-induced polyarthritis; assay: Adjuvant-induced polyarthritis in rats, adjuvant-injected paw [Test 2]; type: in vivo, SD-strain female rats
Method: (a) Experimental animals: SD-strain famale rats 140-180g).
as §1
Rats were anesthetized with ether inhalation, and 0.6 mg of Mycobacterium butyricum suspended in 0.1 ml of white paraffin oil was immediately injected intradermally into the planter surface of the left hind paw of each rat via a 27 gauge needle fitted to a 0.5 ml syringe (day 0). On the 14th day after the adjuvant injection, arthritis-established rats selected by development of secondary lesions were used. Volumes of both hind paws in arthritis-established rats were measured by a plethysmometer (UGO BASILE), and the rats were randomized on the basis of the edema volume in the adjuvant-injected paw. Once daily, beginning on the 14th day up to the 18th day, drugs and vehicles were administered intravenously. Measurements of both paw volumes were performed every day from the 15th day up to the 18th day, and on the 21st day and the 24th day. The inhibition percent were calculated in accordance with the calculation formula as in [Test 1] of A-1.

[6] = in vivo, po; cited from earlier work

In the case of `O=C(O)Cc1ccc(-c2ccccc2)cc1` [4-biphenylylacetic acid, 4-Biphenylylacetic acid], the “IC50, inhibition of synthesis of prostaglandin” value [1] is listed as 0.68 ng/mL.
In the case of `CCOC(=O)Cc1ccc(-c2ccccc2)cc1` [Ethyl 4-biphenylylacetate], the “Inhibition (%)” value ([2]; 1.25 mg/kg i.v. as 4-biphenylylacetic acid, 2 h after carrageenin) is reported as 14.0%, the “Inhibition (%)” value ([2]; 1.25 mg/kg i.v. as 4-biphenylylacetic acid, 3 h after carrageenin) is reported as 17.5% and the “Inhibition (%)” value ([2]; 1.25 mg/kg i.v. as 4-biphenylylacetic acid, 4 h after carrageenin) is reported as 9.6%. For the same compound, the “Inhibition (%)” value ([2]; 1.25 mg/kg i.v. as 4-biphenylylacetic acid, 5 h after carrageenin) was 9.8%, the “Inhibition (%)” value ([2]; 1.25 mg/kg i.v. as 4-biphenylylacetic acid, 6 h after carrageenin) was 6.4% and the “Inhibition (%)” value ([2]; 2.5 mg/kg i.v. as 4-biphenylylacetic acid, 2 h after carrageenin) was 19.3%. For the same compound, the “Inhibition (%)” value ([2]; 2.5 mg/kg i.v. as 4-biphenylylacetic acid, 3 h after carrageenin) was 26.3%, the “Inhibition (%)” value ([2]; 2.5 mg/kg i.v. as 4-biphenylylacetic acid, 4 h after carrageenin) was 17.3% and the “Inhibition (%)” value ([2]; 2.5 mg/kg i.v. as 4-biphenylylacetic acid, 5 h after carrageenin) was 17.6%. For the same compound, the “Inhibition (%)” value ([2]; 2.5 mg/kg i.v. as 4-biphenylylacetic acid, 6 h after carrageenin) was 12.8%, the “Inhibition (%)” value ([2]; 5.0 mg/kg i.v. as 4-biphenylylacetic acid, 2 h after carrageenin) was 17.5% and the “Inhibition (%)” value ([2]; 5.0 mg/kg i.v. as 4-biphenylylacetic acid, 3 h after carrageenin) was 28.1%. For the same compound, the “Inhibition (%)” value ([2]; 5.0 mg/kg i.v. as 4-biphenylylacetic acid, 4 h after carrageenin) was 23.1%, the “Inhibition (%)” value ([2]; 5.0 mg/kg i.v. as 4-biphenylylacetic acid, 5 h after carrageenin) was 23.5% and the “Inhibition (%)” value ([2]; 5.0 mg/kg i.v. as 4-biphenylylacetic acid, 6 h after carrageenin) was 19.1%. The “Inhibition (%)” value ([2]; 10.0 mg/kg i.v. as 4-biphenylylacetic acid, 2 h after carrageenin) was 22.8%, the “Inhibition (%)” value ([2]; 10.0 mg/kg i.v. as 4-biphenylylacetic acid, 3 h after carrageenin) was 22.8% and the “Inhibition (%)” value ([2]; 10.0 mg/kg i.v. as 4-biphenylylacetic acid, 4 h after carrageenin) was 26.9%. The “Inhibition (%)” value ([2]; 10.0 mg/kg i.v. as 4-biphenylylacetic acid, 5 h after carrageenin) was 25.5%, the “Inhibition (%)” value ([2]; 10.0 mg/kg i.v. as 4-biphenylylacetic acid, 6 h after carrageenin) was 27.7% and the ED30 ([2]; Rattus norvegicus, iv, read-out: ED30 (dose required to cause a 30% inhibition of edema volume)) was 15.8 mg/kg. For the same compound, the ED50 [3] was 3.1 mg/kg, the “Transferability to the tissues” value [4] was “showed the same transferability to the tissues” and the “Inhibition (%)” value ([5]; 1.25 mg/kg/day i.v. as 4-biphenylylacetic acid, day 15) was -8.0%. For the same compound, the “Inhibition (%)” value ([5]; 1.25 mg/kg/day i.v. as 4-biphenylylacetic acid, day 16) was -5.1%, the “Inhibition (%)” value ([5]; 1.25 mg/kg/day i.v. as 4-biphenylylacetic acid, day 17) was -3.3% and the “Inhibition (%)” value ([5]; 1.25 mg/kg/day i.v. as 4-biphenylylacetic acid, day 18) was -4.6%. The “Inhibition (%)” value ([5]; 1.25 mg/kg/day i.v. as 4-biphenylylacetic acid, day 21) was -19.2%, the “Inhibition (%)” value ([5]; 1.25 mg/kg/day i.v. as 4-biphenylylacetic acid, day 24) was -23.2% and the “Inhibition (%)” value ([5]; 2.5 mg/kg/day i.v. as 4-biphenylylacetic acid, day 15) was -3.7%. The “Inhibition (%)” value ([5]; 2.5 mg/kg/day i.v. as 4-biphenylylacetic acid, day 16) was 0%, the “Inhibition (%)” value ([5]; 2.5 mg/kg/day i.v. as 4-biphenylylacetic acid, day 17) was 6.7% and the “Inhibition (%)” value ([5]; 2.5 mg/kg/day i.v. as 4-biphenylylacetic acid, day 18) was 5.8%. For the same compound, the “Inhibition (%)” value ([5]; 2.5 mg/kg/day i.v. as 4-biphenylylacetic acid, day 21) was -6.5%, the “Inhibition (%)” value ([5]; 2.5 mg/kg/day i.v. as 4-biphenylylacetic acid, day 24) was -17.5% and the “Inhibition (%)” value ([5]; 5.0 mg/kg/day i.v. as 4-biphenylylacetic acid, day 15) was 5.6%. The “Inhibition (%)” value ([5]; 5.0 mg/kg/day i.v. as 4-biphenylylacetic acid, day 16) was 7.2%, the “Inhibition (%)” value ([5]; 5.0 mg/kg/day i.v. as 4-biphenylylacetic acid, day 17) was 15.5% and the “Inhibition (%)” value ([5]; 5.0 mg/kg/day i.v. as 4-biphenylylacetic acid, day 18) was 15.0%. The “Inhibition (%)” value ([5]; 5.0 mg/kg/day i.v. as 4-biphenylylacetic acid, day 21) was 8.9%, the “Inhibition (%)” value ([5]; 5.0 mg/kg/day i.v. as 4-biphenylylacetic acid, day 24) was 1.3% and the “Inhibition (%)” value ([5]; 10.0 mg/kg/day i.v. as 4-biphenylylacetic acid, day 15) was 2.8%. The “Inhibition (%)” value ([5]; 10.0 mg/kg/day i.v. as 4-biphenylylacetic acid, day 16) was 10.7%, the “Inhibition (%)” value ([5]; 10.0 mg/kg/day i.v. as 4-biphenylylacetic acid, day 17) was 15.2% and the “Inhibition (%)” value ([5]; 10.0 mg/kg/day i.v. as 4-biphenylylacetic acid, day 18) was 15.6%. The “Inhibition (%)” value ([5]; 10.0 mg/kg/day i.v. as 4-biphenylylacetic acid, day 21) was 3.0%, the “Inhibition (%)” value ([5]; 10.0 mg/kg/day i.v. as 4-biphenylylacetic acid, day 24) was -9.8% and the ED20 ([5]; Rattus norvegicus, iv, read-out: ED20 (dose required to cause a 20% inhibition of adjuvant-injected paw volume)) was 14.5 mg/kg.
For `O=C(O)CCC(=O)c1ccc(-c2ccccc2)cc1` [Fenbufen, 4-(4-biphenyl)-4-oxobutyric acid], the “Side effects on the digestive organs” value [6] is listed as “considerably reduced as compared with conventional non-steroidal anti-inflammatory agents”.
